Marks after values point to notes of the source that are not given here.
System: C170HM2 human colorectal tumor cells
Assay: Colon cancer metastasis to the liver (orthotopic liver metastasis model)
Type: in vivo, MF1 nude (nu/nu) athymic mice
Experimental: Liver metastasis was initiated by intraperitoneal injection of C170HM2 human colorectal tumor cells into male MF1 nude (nu/nu) athymic mice. 5FU/leucovorin was used as a positive control.
C170HM2 cells were maintained in vitro in RPMI culture medium (Sigma) containing 10% (v/v) heat inactivated fetal bovine serum and 2 mM L-glutamine at 37° C. in 5% CO2 and humidified conditions. Cells from sub-confluent monolayers were harvested with 0.025% EDTA, washed in culture medium and re-suspended in sterile phosphate buffered saline, pH 7.4 (PBS) for in vivo administration. 1.5×10^6 cells in a volume of 1 ml were injected intraperitoneally into 65 mice, and the mice were allocated into treatment groups as below.
Treatment was initiated on day 1 following cell injection and continued until day 35 or until the clinical condition of the animal required termination. One mouse in group 6 was terminated on day 20 due to black tail, bruising, and very pale appearance. Groups and 6 missed one dose on day 5. No adverse affects of the test compounds in mice bearing the tumors were observed.
The study was terminated on day 35, and the tumors in the liver were excised and weighed.

[1] = 25 mg/kg i.v. days 1, 3, 5, 7, calculated in comparison to group 7 (untreated), not group 1
[2] = 25 mg/kg i.v., compared to the untreated control group (group 7)

Substance: 5FU/leucovorin [5 FU/Leu]
- Mean tumor weight (25 mg/kg i.v. cycled on days 1, 3, 5, 7, liver tumors day 35): 0.037 g
- Mean tumor area (% of vehicle) [1]: 15.7 % of vehicle
- Mean tumor weight (% of vehicle) [1]: 11.94* % of vehicle
- Mean tumor area (mm^2) (25 mg/kg i.v. days 1, 3, 5, 7, cross-sectional area, day 35): 13.12 mm^2
- decrease in tumor cross-sectional area [2]: 84%
- decrease of tumor weight in the liver [2]: approximately 88%
- decrease in tumor size (25 mg/kg i.v., compared to the vehicle control group (group 1), not significant): 62%

From patent US9351992B2, “Non-anticoagulant polysaccharide compositions” (MOMENTA PHARMACEUTICALS, INC., priority 2007, dated 2016)
